The subject of data set [1] is carrageenin edema. The experiment in a line: carrageenin edema test in rats (antiinflammatory activity). It counts as in vivo. The settings on record: Rattus norvegicus, po, read-out: % Decrease of the edema; for inhibition in vivo at 50 mg/kg: dose 50 mg/kg p.o. in rats; for inhibition in vivo at 200 mg/kg: dose 200 mg/kg p.o. in rats; for inhibition in vivo at 100 mg/kg: dose 100 mg/kg p.o. in rats. The source says: The anti-inflamatory activity of the indole derivatives is evidenced by means of the carrageenin edema test in rats. In representative experiments compounds of formula I provoked a substantial decrease of the induced edema at dosage levels from about one fifth to about one tenth of their respective LD50 values. The following table reports the results of the experiments:
The following table reports the percent inhibitory effect of some representative compounds of the formula II in the carrageenin edema test.
A general note: The carrageenan paw model is a standard test of acute inflammation.

A short description of data set [2]: LD50 p.o. in rats (acute toxicity). The settings on record: rat, in vivo, po.
For data set [3], the system named is pain threshold of inflammed foot of the rat. The experiment in a line: analgesic effect on pain threshold of inflamed foot of the rat (Randall and Selitto). The settings on record: vs acetylsalicylic acid. Format: in vivo.
The mark [4] stands for this setting: compounds of the examples (formula I).

Structures can show the parent of a compound that is named as a salt. Where two headings read alike, the source gives them in different places. Some results are limits rather than exact numbers.

Regarding `COc1ccc(N(C)NC(=O)C(C)C)cc1` [1-(p-Methoxyphenyl)-1-methyl-2-isobutyrylhydrazine], the inhibition in vivo at 50 mg/kg in data set [1] (hydrazines of formula II) was 30%. Besides, in data set [2] (hydrazines of formula II), the LD50 turned out to be 500 mg/kg.
As for `CN(NC(=O)CCCN1C(=O)c2ccccc2C1=O)c1ccccc1` [1-Phenyl-1-methyl-1-( -phthalimido-butyryl)-hydrazine], the inhibition in vivo at 200 mg/kg in data set [1] (hydrazines of formula II) is 28%. Moreover, the LD50 in data set [2] (hydrazines of formula II) is > 1000 mg/kg.
On to `CCC(C)C(=O)NN(C)c1ccccc1` (stereo not drawn) [1-Phenyl-1-methyl-2-(2-methylbutyryl)-hydrazine], for which, in data set [1] (hydrazines of formula II), the inhibition in vivo at 100 mg/kg was determined as 40%. For the same molecule, the 50% lethal dose (LD50) in data set [2] (hydrazines of formula II) was > 1000 mg/kg.
In the case of `CC(=O)NN(C)c1ccccc1` [1-Phenyl-1-methyl-2-acetylhydrazine], the inhibition in vivo at 50 mg/kg in data set [1] (hydrazines of formula II) amounted to 57%. The molecule further returned an LD50 in data set [2] (hydrazines of formula II) of 500 mg/kg.
Take `CN(NC(=O)C1CCCCC1)c1ccccc1` [1-Phenyl-1-methyl-2-cyclohexanoyl hydrazine]: the inhibition in vivo at 50 mg/kg in data set [1] (hydrazines of formula II) turned out to be 37%. The LD50 in data set [2] (hydrazines of formula II) worked out at 500 mg/kg.
In the same order, the values of `CN(NC(=O)C1CCCC1)c1ccccc1` [1-Phenyl-1-methyl-2-cyclopentanoylhydrazine] are 37% and 500 mg/kg.
Consider `CN(NC(=O)C1CC1)c1ccccc1` [1-Phenyl-1-methyl-2-cyclopropanoylhydrazine], for which the inhibition in vivo at 50 mg/kg in data set [1] (hydrazines of formula II) worked out at 35%. This molecule registered an LD50 in data set [2] (hydrazines of formula II) of 500 mg/kg.
For `CC(C)C(=O)NN(C)c1ccccc1` [1-Phenyl-1-methyl-2-isobutyrylhydrazine], in that order: 36% and 500 mg/kg.
In the same order, the values of `CCC(=O)NN(C)c1ccccc1` [1-Phenyl-1-methyl-2-propionylhydrazine] are 30% and 500 mg/kg.
For `COc1cccc(-c2c(N)n(C)c3ccccc23)c1` [Example 9, 2-amino-3-(m-anisyl)-1-methylindole hydrochloride], in data set [1] (setting [4]), the inhibition in vivo at 100 mg/kg worked out at 30% and the inhibition in vivo at 200 mg/kg came to 41%. For the same molecule, in data set [2] (setting [4]), the LD50 is > 1000 mg/kg.
Consider `CN1C(=N)C2(CCCCC2)c2ccccc21` [Example 13, 2'-imino-1'-methyl-spyro(cyclohexane-1,3'-indoline)hydrochloride], for which the “analgesic activity relative to acetylsalicylic acid (times as active)” value in data set [3] is listed as “about 25 times”. Moreover, in data set [1] (compounds of the examples (formula I), dose 8 mg/kg p.o. in rats), the inhibition in vivo at 8 mg/kg stood at 45%. Moreover, the inhibition in vivo at 20 mg/kg in data set [1] (compounds of the examples (formula I), dose 20 mg/kg p.o. in rats) worked out at 60%. For the same molecule, the LD50 in data set [2] (setting [4]) is 100 mg/kg.
In the case of `CN1C(=NC(=O)c2ccccc2)C(C)(C)c2ccccc21` [Example 28, 2-Benzoylimino-1,3,3-trimethylindoline], in data set [1] (setting [4]), the inhibition in vivo at 100 mg/kg was 35% and the inhibition in vivo at 200 mg/kg stood at 45%. Also, the LD50 in data set [2] (setting [4]) was > 1000 mg/kg.
For the molecule `Cn1c(NC(=O)Nc2ccccc2)c(-c2ccc(Cl)cc2)c2ccccc21` [Example 34, 3-(p-Chlorophenyl)-1-methyl-2-phenylureidoindole], the inhibition in vivo at 200 mg/kg in data set [1] (setting [4]) came to 33%. In addition, the LD50 in data set [2] (setting [4]) was > 1000 mg/kg.

What is called LD50 is the dose expected to kill half of the subjects tested. A high value points to a less toxic substance.

Values taken from patent publication US3984563A, “Antiinflammatory 2-imino-indolines and their pharmaceutical compositions” (Gruppo Lepetit S.p.A., priority 1973, dated 1976).
